{
  "source": "patent US20210379090A1",
  "about": "“REMDESIVIR ORAL DELIVERY SYSTEM” (ABON PHARMACEUTICALS, LLC, priority 2020, published 2021)",
  "origin": "cited, not measured here",
  "key": {"[1]": {"settings": "would likely result in almost complete first-pass clearance after oral delivery"}, "[2]": {"test_system": "COVID-19", "settings": "received early within 10 days of symptom onset vs treated late after more than 10 days of symptoms"}},
  "data": [
    {"substance": "Remdesivir", "values": [
      {"measurement": "hepatic stability", "setting": "[1]", "value": "poor hepatic stability"},
      {"measurement": "solubility in water", "value": "practically insoluble"},
      {"measurement": "clinical outcome", "setting": "[2]", "value": "improved outcomes"}
    ]}
  ]
}
